The values below come from patent publication US5561047A, “Method of identifying effectors of integrin activation” (priority 1994, dated 1996).

Read-outs that look alike come from different tables or passages of the source.

In experiment [1] the test system is platelet aggregation and secretion. To be noted: Sless, Physiol. Rev. 1989; cited from earlier work.
The target in experiment [2] is T1, integrin αIIb β3 (washed human platelets) (Homo sapiens, UniProt P05106+P08514).
T1 construct: endogenous in cells; host or cells: washed human platelets from whole blood of healthy volunteers
T1 sequence (P08514 32-887 limits assumed): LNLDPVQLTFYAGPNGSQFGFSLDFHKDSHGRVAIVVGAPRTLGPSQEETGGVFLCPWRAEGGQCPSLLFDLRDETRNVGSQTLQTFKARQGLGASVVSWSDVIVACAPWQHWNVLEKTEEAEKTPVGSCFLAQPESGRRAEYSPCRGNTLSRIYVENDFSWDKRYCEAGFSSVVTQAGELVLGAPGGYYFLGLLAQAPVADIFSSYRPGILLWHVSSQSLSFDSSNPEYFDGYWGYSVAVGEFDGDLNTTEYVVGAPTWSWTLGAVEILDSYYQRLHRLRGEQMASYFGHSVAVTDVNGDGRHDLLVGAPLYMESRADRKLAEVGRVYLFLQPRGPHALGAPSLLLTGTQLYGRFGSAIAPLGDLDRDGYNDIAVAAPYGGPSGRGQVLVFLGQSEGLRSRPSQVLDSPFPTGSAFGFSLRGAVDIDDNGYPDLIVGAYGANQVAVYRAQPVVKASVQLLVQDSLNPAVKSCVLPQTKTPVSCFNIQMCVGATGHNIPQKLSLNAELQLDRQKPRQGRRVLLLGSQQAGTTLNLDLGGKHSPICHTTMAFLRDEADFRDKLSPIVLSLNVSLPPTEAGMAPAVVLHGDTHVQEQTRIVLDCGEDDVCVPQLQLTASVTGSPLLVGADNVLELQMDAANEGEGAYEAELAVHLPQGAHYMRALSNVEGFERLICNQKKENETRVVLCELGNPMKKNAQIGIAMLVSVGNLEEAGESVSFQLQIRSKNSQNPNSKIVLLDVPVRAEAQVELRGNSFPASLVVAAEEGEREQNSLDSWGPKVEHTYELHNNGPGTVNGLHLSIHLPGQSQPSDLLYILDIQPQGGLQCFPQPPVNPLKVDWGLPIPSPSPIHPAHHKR
T1 sequence (P08514 891-1039 limits assumed): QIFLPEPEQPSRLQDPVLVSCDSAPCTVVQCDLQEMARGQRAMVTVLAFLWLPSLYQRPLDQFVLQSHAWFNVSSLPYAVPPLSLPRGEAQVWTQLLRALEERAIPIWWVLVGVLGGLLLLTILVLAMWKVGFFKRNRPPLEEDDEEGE
T1 sequence (P05106 27-788): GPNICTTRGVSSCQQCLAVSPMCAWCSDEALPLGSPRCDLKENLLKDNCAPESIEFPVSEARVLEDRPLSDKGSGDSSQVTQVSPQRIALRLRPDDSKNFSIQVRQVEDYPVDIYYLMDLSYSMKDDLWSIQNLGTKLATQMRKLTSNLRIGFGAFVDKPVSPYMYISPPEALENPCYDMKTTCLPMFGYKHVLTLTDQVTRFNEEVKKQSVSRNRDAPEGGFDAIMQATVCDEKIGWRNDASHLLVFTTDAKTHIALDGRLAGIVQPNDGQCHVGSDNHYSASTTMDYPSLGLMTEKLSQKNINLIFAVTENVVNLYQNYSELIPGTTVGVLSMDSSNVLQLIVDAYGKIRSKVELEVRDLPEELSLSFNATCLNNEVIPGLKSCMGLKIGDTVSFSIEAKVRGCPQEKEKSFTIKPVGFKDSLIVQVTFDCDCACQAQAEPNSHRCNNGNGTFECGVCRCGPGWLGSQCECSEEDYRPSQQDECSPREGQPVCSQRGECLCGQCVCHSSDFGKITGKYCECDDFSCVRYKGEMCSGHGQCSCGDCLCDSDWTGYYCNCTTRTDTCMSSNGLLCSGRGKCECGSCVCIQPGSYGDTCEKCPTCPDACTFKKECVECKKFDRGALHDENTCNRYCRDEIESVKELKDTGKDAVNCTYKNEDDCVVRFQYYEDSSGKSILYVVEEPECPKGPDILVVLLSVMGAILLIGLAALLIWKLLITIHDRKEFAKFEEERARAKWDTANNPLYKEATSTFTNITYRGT
Put plainly: integrin activation ELISA: biotin-PAC1 binding to intact washed platelets. To be noted: for extent of biotin-PAC1 binding at maximal agonist concentrations: comparison of thrombin, PMA and ADP; for αIIb β3 activation: physiological agonists. Format: cell-based. The method, then:
Platelet incubations were carried out in wells of Falcon flexible polyvinyl chloride (PVC) microtitre plates with 96 U-bottom wells (Becton Dickinson, San Jose, Calif.). ELISA reactions were carried out in 96 well Immulon II polystyrene plates (Dynatech Laboratories, Inc., Chantilly, Va.) that had been precoated with streptavidin. This was accomplished by addition of 75 μl/well of streptavidin (1.25 μg/ml) for 16 hours at 4°, followed by washing four times with 200 μl of 1% TWEEN(polyethylenesorbit -20 in phosphate-buffered saline (PBS), pH 7.4, blocking with 200 μl of 1% bovine serum albumin in PBS for 2 hours at room temperature, and washing again. These plates could be stored at -20° for at least 3 months prior to use in the assay.
(§1) Whole blood was obtained from healthy, drug-free volunteers and anticoagulated with a 1:6 volume of acid-citrate-dextrose formula A. Platelet-rich plasma was collected by centrifugation at 180×g for 20 minutes, incubated for 5 minutes with 1 μM prostaglandin E1 and 1 unit/ml apyrase, then sedimented at 500×g for 10 minutes and resuspended in 5 ml of 2 wash buffer containing 20 mM HEPES, 0.15 M NaCl, 0.1% glucose, 1 μM prostaglandin E1, 1 unit/ml apyrase, and 1.5 mM EDTA, pH 7.4. After another centrifugation at 500×g for 20 minutes, the platelets were finally resuspended to 5.8×10^8 /ml in an incubation buffer containing 137 mM NaCl, 2.7 mM KCl, 1.0 mM MgCl2, 3.3 mM NaH2 PO4, 0.1% glucose, 0.1% bovine serum albumin, and 20 mM HEPES, pH 7.35.
Fifty-five μl of washed platelets were added in triplicate to wells of PVC plates containing 10 μl of the desired agonist (or the activation inhibitor, PGI2) and 25 μl of the desired inhibitory test compound (or the equivalent vehicle as a diluent). After 10 minutes at 37° without shaking, 10 μl of biotin-PAC1 were added to achieve a final antibody concentration of 0.5 μg/ml and a platelet concentration of 3.2×10^8 /ml. After a further 15 minutes incubation at room temperature without shaking, the microtitre plates were centrifuged at 2800 rpm for 10 minutes to sediment the platelets, conditions under which essentially all of the platelets were removed from the supernatant.
After platelet centrifugation, 50 μl of supernatant from each well were transferred to corresponding wells of streptavidin-coated plates and incubated for 30 minutes at room temperature. Each well was then washed four times with 200 μl of PBS/Tween, followed by addition of 50 μl of goat anti-mouse IgM-horseradish peroxidase conjugate (1:1500). After incubation for 60 minutes at room temperature, the plates were again washed four times with PBS/Tween, followed by addition of 50 μl of a reaction mixture containing 1 mg/ml o-phenylenediamine dihydrochloride and 0.012% H2 O2 in 0.1 M citrate buffer, pH 4.5. After a final 20 minutes at room temperature, reactions were stopped with 25 μl of 4 N HCl, and formation of the reaction product was measured at 490 nm in a THERMOmax microplate reader (Molecular Devices, Inc.)
Triplicate aliquots of washed human platelets were incubated in microtitre wells at a final volume of 90 μl in the presence of a platelet agohist such as PMA or thrombin, in order to convert αIIb β3 into a high affinity, ligand-competent state. Compounds that were being tested for their ability to inhibit αIIb β3 were also added to some of the wells at this stage. Other wells contain PGI2 (0.2 μM), a potent platelet activation inhibitor, to purposely maintain αIIb β3 in a low-affinity state. After 10 minutes at 37°, 10 μl of a subsaturating and limiting concentration of biotin-PAC1 was added to each well and the incubation was continued for an additional 15 minutes at room temperature.
The microtitre plates were then centrifuged at 2800 rpm for 10 minutes in order to sediment the platelets. […] In contrast, platelets in wells containing an agonist have bound biotinPAC1. […]

In experiment [3] the test system is "internal" pool of activated αIIb β3. Particulars: unstirred platelets; Woods et al. 1986; cited from earlier work.
The test system of experiment [4] is integrin αIIb β3 (washed platelets). As to the kind of experiment: flow cytometry of FITC-PAC1 binding to washed platelets. Format: cell-based, human. To be noted: washed platelets stimulated for 15 minutes with 0.2 mM phorbol myristate acetate; representative experiment. How it is done: as §1
Assay variables in each step of the assay were examined systematically. […] Flow cytometry was used to assess the activation state of the platelets using FITC-PAC1 as the activation marker (Shattil et al., Blood 1987, 70, 307). No activation of washed platelets was detected. In a representative experiment, mean FITC-PAC1 binding to washed platelets was 22 arbitrary fluorescence units, a value identical to that obtained with platelets in whole blood or in platelet-rich plasma. FITC-PAC1 binding to washed platelets that had been stimulated for 15 minutes with 0.2 mM phorbol myristate acetate amounted to 1,776 fluorescence units.

The next experiment concerns αIIb β3. To be noted: PMA 0.2 μM; Shattil et al., Blood 1987; cited from earlier work.
A further experiment deals with protein kinase C. To be noted: Toullec et al. 1991; cited from earlier work.

Regarding antimycin A, the “inhibition of platelet aggregation and secretion” value in experiment [1] is “block both platelet aggregation and secretion”.

For thrombin, in experiment [2], the “extent of biotin-PAC1 binding at maximal agonist concentrations” value (from here on “extent of biotin-PAC1 binding”) was “similar” and the “αIIb β3 activation” value is reported as “caused αIIb β3 activation in a dose-dependent manner”. For the same compound, in experiment [2] (thrombin), the “concentration of maximal αIIb β3 activation” value is listed as 0.1 U/ml. Besides, in experiment [3], the “stimulation of surface expression of an internal pool of activated αIIb β3” value is on record as “stimulate the surface expression”.

On to `O=CC[C@@H](O)[C@H](O)[C@H](O)CO` [2-Deoxyglucose], for which the “inhibition of platelet aggregation and secretion” value in experiment [1] is “block both platelet aggregation and secretion”.

As to `CCCCCCCCCCCCCC(=O)O[C@@H]1[C@@H](C)[C@@]2(O)[C@@H](C=C(CO)C[C@]3(O)C(=O)C(C)=C[C@@H]23)[C@@H]2C(C)(C)[C@]12OC(C)=O` [PMA, phorbol myristate acetate], the “activation of αIIb β3 in the integrin activation ELISA” value in experiment [2] (PMA 0.2 μM) is listed as “maximal activation of αIIb β3”. Besides, the “amount of biotin-PAC1 remaining in supernatant” value in experiment [2] (PMA 0.2 μM, 0.5 μg/ml biotin-PAC1, increasing number of activated platelets) is on record as “decreased as the number of activated platelets in the well increased”. Further, the “extent of biotin-PAC1 binding” value in experiment [2] is on record as “similar”. Besides, in experiment [4], the “mean FITC-PAC1 binding” value was 1,776 fluorescence units. Further, the “activation of αIIb β3 in conventional assays” value with αIIb β3 is “maximal activation of αIIb β3”. The “stimulation of surface expression of an internal pool of activated αIIb β3” value in experiment [3] is “stimulate the surface expression”.

Consider `Nc1ncnc2c1ncn2[C@@H]1O[C@H](COP(=O)(O)OP(=O)(O)O)[C@@H](O)[C@H]1O` [ADP], for which, in experiment [2], the EC50 is about 1 µM, the “extent of biotin-PAC1 binding” value is listed as “less” and the “αIIb β3 activation” value is “caused αIIb β3 activation in a dose-dependent manner”. In addition, the “concentration of maximal αIIb β3 activation” value in experiment [2] (ADP) was determined as 10 µM.

Consider RGES, for which, in experiment [2] (activated platelets), the “inhibition of biotin-PAC1 binding to activated platelets” value is recorded as “ineffective”.

With bisindolylmaleimide, in experiment [2] (PMA-stimulated platelets), the “concentration of complete inhibition of biotin-PAC1 binding” value was 20 µM. The IC50 in experiment [2] (PMA-stimulated platelets, read-out: IC50, inhibition of biotin-PAC1 binding) is about 1 µM. For the same compound, in the experiment with protein kinase C, the “concentration maximally effective on protein kinase C in platelets” value was 10 to 20 µM.

In the case of `CCCCC[C@H](O)/C=C/[C@@H]1[C@H]2C/C(=C/CCCC(=O)O)O[C@H]2C[C@H]1O` [PGI2, prostaglandin I2], in experiment [2] (PGI2 0.2 μM), the “biotin-PAC1 bound to platelets in wells containing PGI2” value is “do not have bound biotin-PAC1”. In addition, the “depletion of PAC1 from supernatant” value in experiment [2] (PGI2-treated, unactivated platelets, any platelet concentration) is “No depletion of PAC1 was observed”.

As to fibrinogen, in experiment [2] (activated platelets, read-out: IC50, inhibition of biotin-PAC1 binding to activated platelets), the IC50 was determined as 0.4 µM.

For RGDS, the “inhibition of biotin-PAC1 binding to activated platelets” value in experiment [2] (activated platelets) is “inhibited in a dose-dependent manner”.
